Source: US11173151B2, “Substituted triazole derivatives and uses thereof” (BAYER AKTIENGESELLSCHAFT, priority 2017, dated 2021)

Assays:
human V1a receptor = biological target: T1, human V1a receptor (Homo sapiens, UniProt P37288); assay: Cellular in vitro assay for determining vasopressin receptor activity, V1a receptor cell line (CHO, aequorin luminescence); format: cell-based; details: for IC50: CHO cell line transfected with human V1a receptor, [Arg]-vasopressin at EC50 concentration, read-out: IC50 hV1a; for ratio IC50 hV2/hV1a: selectivity ratio IC50 hV2 / IC50 hV1a
T1 construct: expressed in transfected cells; host or cells: CHO K1 (ATCC), also stably transfected with a modified aequorin
In short: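 IC50 from inhibition of [Arg]-vasopressin (EC50 concentration)-evoked aequorin luminescence in CHO K1 cells, with 10-min compound pretreatment.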

human V2 receptor = biological target: T2, human V2 receptor (Homo sapiens, UniProt P30518); assay: Cellular in vitro assay for determining vasopressin receptor activity, V2 receptor cell line (CHO, CRE-luciferase); format: cell-based; details: CHO cell line transfected with human V2 receptor; [Arg8]-vasopressin at EC50 concentration, 3 hours; read-out: IC50 hV2
T2 construct: expressed in transfected cells; host or cells: CHO K1 (ATCC) expressing firefly luciferase under a CRE-responsive promoter
T2 sequence (P30518 whole entry): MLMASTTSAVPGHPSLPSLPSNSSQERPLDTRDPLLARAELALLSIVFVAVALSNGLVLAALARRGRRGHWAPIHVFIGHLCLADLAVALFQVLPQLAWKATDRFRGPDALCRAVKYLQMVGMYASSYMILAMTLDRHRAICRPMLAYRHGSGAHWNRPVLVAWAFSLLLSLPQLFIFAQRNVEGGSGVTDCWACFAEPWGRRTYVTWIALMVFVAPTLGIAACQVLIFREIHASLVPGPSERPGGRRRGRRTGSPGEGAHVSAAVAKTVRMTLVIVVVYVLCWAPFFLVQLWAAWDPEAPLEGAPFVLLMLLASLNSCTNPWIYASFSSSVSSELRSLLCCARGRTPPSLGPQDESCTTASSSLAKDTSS

T1 sequence (P37288 whole entry): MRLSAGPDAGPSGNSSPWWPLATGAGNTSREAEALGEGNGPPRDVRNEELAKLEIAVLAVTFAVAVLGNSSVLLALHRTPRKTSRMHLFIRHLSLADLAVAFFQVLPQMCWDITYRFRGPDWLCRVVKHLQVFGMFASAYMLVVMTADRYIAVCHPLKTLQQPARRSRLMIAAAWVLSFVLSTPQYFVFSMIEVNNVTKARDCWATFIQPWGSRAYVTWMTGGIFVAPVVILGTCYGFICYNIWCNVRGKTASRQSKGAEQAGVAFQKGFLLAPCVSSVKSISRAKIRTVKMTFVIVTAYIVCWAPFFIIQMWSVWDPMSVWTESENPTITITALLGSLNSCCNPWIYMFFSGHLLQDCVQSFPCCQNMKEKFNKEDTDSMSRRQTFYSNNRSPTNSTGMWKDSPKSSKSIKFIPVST

SMILES | IC50 (human V1a receptor) | ratio IC50 hV2/hV1a (human V1a receptor) | IC50 (human V2 receptor)
CC(=O)Nc1cccnc1-n1cnc(Cn2nc(-c3ccc(Cl)cc3)n(C[C@H](O)C(F)(F)F)c2=O)n1 [Example 38, N-{2-[3-({3-(4-Chlorophenyl)-5-oxo-4-[(2S)-3,3,3-trifluoro-2-hydroxypropyl]-4,5-dihydro-1H-1,2,4-triazol-1-yl}methyl)-1H-1,2,4-triazol-1-yl]pyridin-3-yl}acetamide] | 4.2 nM | 52.4 | 220 nM
O=C(CF)Nc1cccnc1-n1cnc(Cn2nc(-c3ccc(Cl)cc3)n(C[C@H](O)C(F)(F)F)c2=O)n1 [Example 39, N-{2-[3-({3-(4-Chlorophenyl)-5-oxo-4-[(2S)-3,3,3-trifluoro-2-hydroxypropyl]-4,5-dihydro-1H-1,2,4-triazol-1-yl}methyl)-1H-1,2,4-triazol-1-yl]pyridin-3-yl}-2-fluoroacetamide] | 23 nM | 15.7 | 360 nM
COCC(=O)Nc1cccnc1-n1cnc(Cn2nc(-c3ccc(Cl)cc3)n(C[C@H](O)C(F)(F)F)c2=O)n1 [Example 40, N-{2-[3-({3-(4-Chlorophenyl)-5-oxo-4-[(2S)-3,3,3-trifluoro-2-hydroxypropyl]-4,5-dihydro-1H-1,2,4-triazol-1-yl}methyl)-1H-1,2,4-triazol-1-yl]pyridin-3-yl}-2-methoxyacetamide] | 25.5 nM | 13.7 | 350 nM
O=C(Nc1cccnc1-n1cnc(Cn2nc(-c3ccc(Cl)cc3)n(C[C@H](O)C(F)(F)F)c2=O)n1)C1CC1 [Example 44, N-{2-[3-({3-(4-Chlorophenyl)-5-oxo-4-[(2S)-3,3,3-trifluoro-2-hydroxypropyl]-4,5-dihydro-1H-1,2,4-triazol-1-yl}methyl)-1H-1,2,4-triazol-1-yl]pyridin-3-yl}cyclopropanecarboxamide] | 4.25 nM | 84.7 | 360 nM
O=C(CC1CC1)Nc1cccnc1-n1cnc(Cn2nc(-c3ccc(Cl)cc3)n(C[C@H](O)C(F)(F)F)c2=O)n1 [Example 46, N-{2-[3-({3-(4-Chlorophenyl)-5-oxo-4-[(2S)-3,3,3-trifluoro-2-hydroxypropyl]-4,5-dihydro-1H-1,2,4-triazol-1-yl}methyl)-1H-1,2,4-triazol-1-yl]pyridin-3-yl}-2-cyclopropylacetamide] | 32 nM | 49.0 | 1570 nM
O=C(Nc1cccnc1-n1cnc(Cn2nc(-c3ccc(Cl)cc3)n(C[C@H](O)C(F)(F)F)c2=O)n1)C1(C(F)(F)F)CC1 [Example 47, N-{2-[3-({3-(4-Chlorophenyl)-5-oxo-4-[(2S)-3,3,3-trifluoro-2-hydroxypropyl]-4,5-dihydro-1H-1,2,4-triazol-1-yl}methyl)-1H-1,2,4-triazol-1-yl]pyridin-3-yl}-1-(trifluoromethyl)cyclopropanecarboxamide] | 7 nM | 40.5 | 283 nM
O=C(Nc1cccnc1-n1cnc(Cn2nc(-c3ccc(Cl)cc3)n(C[C@H](O)C(F)(F)F)c2=O)n1)C1CC(F)(F)C1 [Example 48, N-{2-[3-({3-(4-Chlorophenyl)-5-oxo-4-[(2S)-3,3,3-trifluoro-2-hydroxypropyl]-4,5-dihydro-1H-1,2,4-triazol-1-yl}methyl)-1H-1,2,4-triazol-1-yl]pyridin-3-yl}-3,3-difluorocyclobutanecarboxamide] | 7.05 nM | 79.0 | 557 nM
CS(=O)(=O)CC(=O)Nc1cccnc1-n1cnc(Cn2nc(-c3ccc(Cl)cc3)n(C[C@H](O)C(F)(F)F)c2=O)n1 [Example 49, N-{2-[3-({3-(4-Chlorophenyl)-5-oxo-4-[(2S)-3,3,3-trifluoro-2-hydroxypropyl]-4,5-dihydro-1H-1,2,4-triazol-1-yl}methyl)-1H-1,2,4-triazol-1-yl]pyridin-3-yl}-2-(methylsulfonyl)acetamide] | 4.8 nM | 230.2 | 1100 nM
CS(=O)(=O)NCC(=O)Nc1cccnc1-n1cnc(Cn2nc(-c3ccc(Cl)cc3)n(C[C@H](O)C(F)(F)F)c2=O)n1 [Example 53, N-{2-[3-({3-(4-Chlorophenyl)-5-oxo-4-[(2S)-3,3,3-trifluoro-2-hydroxypropyl]-4,5-dihydro-1H-1,2,4-triazol-1-yl}methyl)-1H-1,2,4-triazol-1-yl]pyridin-3-yl}-N^2-(methylsulfonyl)glycinamide] | 31.5 nM | 71.4 | 2250 nM
O=C(Nc1cccnc1-n1cnc(Cn2nc(-c3ccc(Cl)cc3)n(C[C@H](O)C(F)(F)F)c2=O)n1)C1CC1F (stereo partly drawn) [Example 54, N-{2-[3-({3-(4-Chlorophenyl)-5-oxo-4-[(2S)-3,3,3-trifluoro-2-hydroxypropyl]-4,5-dihydro-1H-1,2,4-triazol-1-yl}methyl)-1H-1,2,4-triazol-1-yl]pyridin-3-yl}-2-fluorocyclopropanecarboxamide] | 4.5 nM | 90.4 | 407 nM
O=C(Nc1cccnc1-n1cnc(Cn2nc(-c3ccc(Cl)cc3)n(C[C@H](O)C(F)(F)F)c2=O)n1)C1(F)CC1 [Example 57, N-{2-[3-({3-(4-Chlorophenyl)-5-oxo-4-[(2S)-3,3,3-trifluoro-2-hydroxypropyl]-4,5-dihydro-1H-1,2,4-triazol-1-yl}methyl)-1H-1,2,4-triazol-1-yl]pyridin-3-yl}-1-fluorocyclopropanecarboxamide] | 13 nM | 38.7 | 503 nM
O=C(Nc1cccnc1-n1cnc(Cn2nc(-c3ccc(Cl)cc3)n(C[C@H](O)C(F)(F)F)c2=O)n1)C1CS(=O)(=O)C1 [Example 58, N-{2-[3-({3-(4-Chlorophenyl)-5-oxo-4-[(2S)-3,3,3-trifluoro-2-hydroxypropyl]-4,5-dihydro-1H-1,2,4-triazol-1-yl}methyl)-1H-1,2,4-triazol-1-yl]pyridin-3-yl}thietane-3-carboxamide 1,1-dioxide] | 19.5 nM | 58.3 | 1140 nM
O=C(Nc1cccnc1-n1cnc(Cn2nc(-c3ccc(Cl)cc3)n(C[C@H](O)C(F)(F)F)c2=O)n1)OCC(F)(F)F [Example 62, 2,2,2-trifluoroethyl {2-[3-({3-(4-chlorophenyl)-5-oxo-4-[(2S)-3,3,3-trifluoro-2-hydroxypropyl]-4,5-dihydro-1H-1,2,4-triazol-1-yl}methyl)-1H-1,2,4-triazol-1-yl]pyridin-3-yl}carbamate] | 19.5 nM | 49.1 | 957 nM
O=C(NCC(F)(F)F)Nc1cccnc1-n1cnc(Cn2nc(-c3ccc(Cl)cc3)n(C[C@H](O)C(F)(F)F)c2=O)n1 [Example 63, 1-{2-[3-({3-(4-Chlorophenyl)-5-oxo-4-[(2S)-3,3,3-trifluoro-2-hydroxypropyl]-4,5-dihydro-1H-1,2,4-triazol-1-yl}methyl)-1H-1,2,4-triazol-1-yl]pyridin-3-yl}-3-(2,2,2-trifluoroethyl)urea] | 3.15 nM | 366.1 | 1150 nM
O=c1n(Cc2ncn(-c3cccnc3N3CCOCC3)n2)nc(-c2ccc(Cl)cc2)n1C[C@H](O)C(F)(F)F [Example 64, 5-(4-Chlorophenyl)-2-({1-[2-(morpholin-4-yl)pyridin-3-yl]-1H-1,2,4-triazol-3-yl}methyl)-4-[(2S)-3,3,3-trifluoro-2-hydroxypropyl]-2,4-dihydro-3H-1,2,4-triazol-3-one] | 16 nM | 33.4 | 535 nM
CC(C)(N)CNc1ncccc1-n1cnc(Cn2nc(-c3ccc(Cl)cc3)n(C[C@H](O)C(F)(F)F)c2=O)n1 [Example 65, 2-[(1-{2-[(2-Amino-2-methylpropyl)amino]pyridin-3-yl}-1H-1,2,4-triazol-3-yl)methyl]-5-(4-chlorophenyl)-4-[(2S)-3,3,3-trifluoro-2-hydroxypropyl]-2,4-dihydro-3H-1,2,4-triazol-3-one] | 190 nM | 2.0 | 380 nM
NC(=O)[C@H]1CCCN1c1ncccc1-n1cnc(Cn2nc(-c3ccc(Cl)cc3)n(C[C@H](O)C(F)(F)F)c2=O)n1 [Example 66, 1-{3-[3-({3-(4-Chlorophenyl)-5-oxo-4-[(2S)-3,3,3-trifluoro-2-hydroxypropyl]-4,5-dihydro-1H-1,2,4-triazol-1-yl}methyl)-1H-1,2,4-triazol-1-yl]pyridin-2-yl}-D-prolinamide] | 43.5 nM | 8.4 | 363 nM
CC(C)(O)CNc1ncccc1-n1cnc(Cn2nc(-c3ccc(Cl)cc3)n(C[C@H](O)C(F)(F)F)c2=O)n1 [Example 67, 5-(4-Chlorophenyl)-2-[(1-{2-[(2-hydroxy-2-methylpropyl)amino]pyridin-3-yl}-1H-1,2,4-triazol-3-yl)methyl]-4-[(2S)-3,3,3-trifluoro-2-hydroxypropyl]-2,4-dihydro-3H-1,2,4-triazol-3-one] | 76.5 nM | 2.0 | 157 nM
NC(=O)[C@@H]1CCCN1c1ncccc1-n1cnc(Cn2nc(-c3ccc(Cl)cc3)n(C[C@H](O)C(F)(F)F)c2=O)n1 [Example 68, 1-{3-[3-({3-(4-Chlorophenyl)-5-oxo-4-[(2S)-3,3,3-trifluoro-2-hydroxypropyl]-4,5-dihydro-1H-1,2,4-triazol-1-yl}methyl)-1H-1,2,4-triazol-1-yl]pyridin-2-yl}-L-prolinamide] | 63.5 nM | 6.9 | 437 nM
O=c1n(Cc2ncn(-c3cccnc3NCCC(F)(F)F)n2)nc(-c2ccc(Cl)cc2)n1C[C@H](O)C(F)(F)F [Example 69, 5-(4-Chlorophenyl)-4-[(2S)-3,3,3-trifluoro-2-hydroxypropyl]-2-[(1-{2-[(3,3,3-trifluoropropyl)amino]pyridin-3-yl}-1H-1,2,4-triazol-3-yl)methyl]-2,4-dihydro-3H-1,2,4-triazol-3-one] | 235 nM | 1.4 | 320 nM
